Source: patent US8242160B2, “Inhibitors of ubiquitin E1” (The United States of America, as represented by the …, priority 2005, dated 2012)

How the values were obtained:
[1] = test system: untransformed retinal pigment epithelial cells; experiment: Growth of untransformed RPE cells, MTT assay; assay type: cell-based
From the text: FIG. 6A depicts the induction of growth arrest in untransformed RPE cells by 4-[4-(5-nitro-furan-2-ylmethylene)-3,5-dioxo-pyrazolidin-1-yl]-benzoic acid methyl […], as measured by MTT assay.
(§1) While p53 induces apoptotic cell death in many tumor cells, it generally only induces growth arrest in untransformed cells. This has been the rationale for many studies targeting the p53 system.

[2] = test system: TRAF6; experiment: TNFα-induced TRAF6 ubiquitination, immunoprecipitation and immunoblotting; assay type: cell-based; conditions: T cell leukemia Jurkat
From the text: To determine whether 4-[4-(5-nitro-furan-2-ylmethylene)-3,5-dioxo-pyrazolidin-1-yl]-benzoic acid methyl acid blocks ubiquitination of TRAF6 in response to TNFα, TRAF6 was immunoprecipitated from the T cell leukemia Jurkat after TNFα treatment, followed by immunoblotting (FIG. 4C).

[3] = test system: U2O cells; experiment: Proteasome inhibitor-induced accumulation of ubiquitylated proteins; assay type: cell-based; conditions: 50 μM with ALLN 50 μM, four hours
[4] = test system: MEFs (mouse embryonic fibroblasts) that express wild type p53; experiment: Killing of MEFs that express wild type p53; assay type: cell-based
From the text: as §1

[5] = biological target: T1, Rabbit E1 (Oryctolagus cuniculus, UniProt Q29504); experiment: E1 only assay: thiolester linkage between 32P-labeled ubiquitin and E1; assay type: biochemical; conditions: gel-based assay with 32P-labeled ubiquitin; stated after block of E1-ubiquitin thiolester formation (FIG. 1B)
T1 construct: purchased Calbiochem #6620700
T1 sequence (Q29504 1-1058): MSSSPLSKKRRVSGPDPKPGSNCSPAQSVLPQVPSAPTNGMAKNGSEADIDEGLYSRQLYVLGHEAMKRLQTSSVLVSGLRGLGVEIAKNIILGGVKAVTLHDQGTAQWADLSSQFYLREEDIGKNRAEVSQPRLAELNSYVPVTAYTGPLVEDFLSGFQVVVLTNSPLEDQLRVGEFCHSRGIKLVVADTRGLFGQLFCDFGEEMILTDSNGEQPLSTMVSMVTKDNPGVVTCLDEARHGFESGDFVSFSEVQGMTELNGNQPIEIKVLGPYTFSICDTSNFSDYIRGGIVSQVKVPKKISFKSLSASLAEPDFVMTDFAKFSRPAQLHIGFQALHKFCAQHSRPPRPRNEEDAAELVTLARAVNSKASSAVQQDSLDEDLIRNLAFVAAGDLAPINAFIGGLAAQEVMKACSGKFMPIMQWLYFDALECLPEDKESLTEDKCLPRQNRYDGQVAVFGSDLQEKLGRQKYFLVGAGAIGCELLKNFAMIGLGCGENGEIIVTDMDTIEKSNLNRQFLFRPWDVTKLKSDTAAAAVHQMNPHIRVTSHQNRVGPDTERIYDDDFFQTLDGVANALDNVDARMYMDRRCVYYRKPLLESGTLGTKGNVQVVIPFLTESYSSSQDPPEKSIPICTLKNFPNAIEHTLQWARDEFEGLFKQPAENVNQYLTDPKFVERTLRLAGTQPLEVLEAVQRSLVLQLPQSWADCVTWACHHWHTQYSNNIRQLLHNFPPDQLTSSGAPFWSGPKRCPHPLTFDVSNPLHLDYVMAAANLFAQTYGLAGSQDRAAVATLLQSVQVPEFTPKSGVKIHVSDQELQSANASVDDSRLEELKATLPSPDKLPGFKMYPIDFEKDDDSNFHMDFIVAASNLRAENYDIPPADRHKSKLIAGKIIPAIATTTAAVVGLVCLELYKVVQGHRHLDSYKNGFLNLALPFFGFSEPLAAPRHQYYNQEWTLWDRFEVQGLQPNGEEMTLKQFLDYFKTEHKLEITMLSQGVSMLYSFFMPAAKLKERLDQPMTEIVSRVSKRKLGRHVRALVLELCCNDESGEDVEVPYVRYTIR
Experimental: Since Mdm2 autoubiquitination depends on the activity of E1 and E2, some of these might act by inhibiting E1. In fact, some did block the formation of thiolester linkages between ^32P-labeled ubiquitin and E1 (FIG. 1B). The compound 4-[4-(5-nitro-furan-2-ylmethylene)-3,5-dioxo-pyrazolidin-1-yl]-benzoic acid methyl acid was active at a concentration of 20-50 μM.
b. “E1 Only” Assay. • 2 μl rabbit E1+12 μl of 1× reaction buffer are mixed together with the test compound followed by addition of 1 μl of ^32P Ub. After incubating for 10 minutes at room temperature, the samples are denatured using loading buffer without reducing agent and subjected to SDS-PAGE under non-reducing conditions to maintain thiol-ester linkages and exposure as above.

[6] = test system: IκBα; experiment: TNFα-induced IκBα phosphorylation in cells; assay type: cell-based; conditions: 1 minute stimulation
[7] = test system: IκBα; experiment: TNFα-induced IκBα degradation in cells; assay type: cell-based
[8] = test system: Mdm2; experiment: Cellular Mdm2 level by immunoblotting; assay type: cell-based; conditions: six hours treatment; RPE cells
From the text: FIG. 5A depicts the increase in the levels of Mdm2 and p53 in RPE cells after treatment with the E1 inhibitor 4-[4-(5-nitro-furan-2-ylmethylene)-3,5-dioxo-pyrazolidin-1-yl]-benzoic acid methyl acid.

[9] = test system: MEFs from p53-deficient mice; experiment: Killing of MEFs from p53-deficient mice; assay type: cell-based, mouse
From the text: as §1

[10] = biological target: T2, GST-UbcH5B (Homo sapiens, UniProt P62837); experiment: E1+E2 assay: formation of E2-ubiquitin complex; assay type: biochemical; conditions: E1 preloaded with 32P-labeled ubiquitin, then E2 added with compound
T2 construct: made in house; host or cells: bacteria
Experimental: One way that the compounds might inactivate E1 is by alkylating or otherwise irreversibly inactivating active site cysteines. Like E1, E2 also uses a cysteine to form thiolester bond with ubiquitin. Inhibitors that directly act on the cysteine of E1 might therefore also affect E2 activity, and thus function in a relatively non-specific manner. […]
c. E1+E2 Assay with Immobilized E2 • 20 pmoles of bacterially-expressed GST-UbcH5B are bound to GS beads for 30 minutes at room temperature. […] This is followed by resolution by SDS-PAGE under non-reducing conditions and exposure as above.

T2 sequence (P62837 whole entry): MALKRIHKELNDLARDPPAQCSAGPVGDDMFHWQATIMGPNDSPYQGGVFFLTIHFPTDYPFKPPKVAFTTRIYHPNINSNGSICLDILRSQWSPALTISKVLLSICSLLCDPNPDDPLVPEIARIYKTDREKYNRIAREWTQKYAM

## COC(=O)c1ccc(N2NC(=O)/C(=C/c3ccc([N+](=O)[O-])o3)C2=O)cc1 [E1-41, 4-[4-(5-nitro-furan-2-ylmethylene)-3,5-dioxo-pyrazolidin-1-yl]-benzoic acid methyl acid]
[1]
  effect on growth of untransformed retinal pigment epithelial cells: causes growth arrest
[2]
  TNFα-induced ubiquitination of TRAF6: effectively inhibited
[3]
  accumulation of ubiquitylated proteins in proteasome inhibitor-treated cells: inhibit the accumulation of ubiquiylated proteins
[4]
  killing of MEFs expressing wild type p53: only kills MEFs
[5]
  concentration at which the compound was active: 20 to 50 µM
[6]
  IκBα phosphorylation following TNFα treatment: blocks IκBα phosphorylation
[7]
  TNFα-induced IκBα degradation: prevents TNFα-induced IκBα degradation
[8]
  cellular Mdm2 level: increased
[9]
  killing of MEFs from p53-deficient mice: relatively resistant
[10]
  transfer of ubiquitin from E1 to E2 (formation of E2-ubiquitin complex): did not affect transfer of ubiquitin from E1 to E2
